{"source": "patent US20260242789A1", "about": "(priority 2023, published 2026)", "key": {"[1]": {"molecular_target": "T1, SAMD9^134-385 protein (SAMD9 tRNase) (Homo sapiens, UniProt Q5K651)", "T1 construct": "The recombinant SAMD9^134-385 or SAMD9^156-385 protein was expressed and purified from E. coli; SUMO (cleaved yes); 6xHis (cleaved yes); made in house; host or cells: E. coli", "T1 sequence (Q5K651 134-385)": "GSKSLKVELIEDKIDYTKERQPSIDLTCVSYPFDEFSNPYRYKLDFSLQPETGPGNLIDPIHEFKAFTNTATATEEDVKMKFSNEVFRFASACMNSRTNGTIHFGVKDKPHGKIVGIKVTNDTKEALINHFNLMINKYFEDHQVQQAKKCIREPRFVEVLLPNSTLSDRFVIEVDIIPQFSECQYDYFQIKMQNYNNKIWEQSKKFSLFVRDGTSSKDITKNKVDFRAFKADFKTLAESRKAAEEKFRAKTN", "test": "biochemical"}, "[2]": {"molecular_target": "T1, SAMD9^134-385 protein (SAMD9 tRNase)", "assay_type": "biochemical", "conditions": "at 2×IC50 concentration, two hours of reaction"}, "[3]": {"molecular_target": "T2, SAMD9 tRNase:tRNA complex (Homo sapiens, UniProt Q5K651)", "T2 construct": "The recombinant SAMD9^134-385 or SAMD9^156-385 protein was expressed and purified from E. coli; SUMO (cleaved yes); 6xHis (cleaved yes); made in house; host or cells: E. coli", "T2 sequence (Q5K651 134-385)": "T1 sequence (Q5K651 134-385)", "assay_type": "binding"}}, "note": "Structures can show the parent of a compound that is named as a salt. Where two headings read alike, the source gives them in different places."}
{"compound": "Cc1cc(-c2ccc(/N=N/c3ccc4c(S(=O)(=O)O)cc(S(=O)(=O)O)c(N)c4c3O)c(C)c2)ccc1/N=N/c1ccc2c(S(=O)(=O)O)cc(S(=O)(=O)O)c(N)c2c1O", "note": "[Evans Blue]", "values": [{"measurement": "IC50", "setting": "[1]", "result": 1200, "unit": "nM"}, {"measurement": "cleavage of yeast tRNA by SAMD9 tRNase", "setting": "[2]", "result": "blocked"}, {"measurement": "disruption of the SAMD9 tRNase:tRNA complex", "setting": "[3]; 2:1 molar ratio", "result": "disrupted the complex"}, {"measurement": "disruption of the SAMD9 tRNase:tRNA complex", "setting": "[3]; 20:1 molar ratio", "result": "completely disrupted"}]}
{"compound": "NCCOc1cc(C(=O)Nc2cc(OCCN)c3ccccc3n2)nc(C(=O)Nc2cc(OCCN)c3ccccc3n2)c1", "note": "[Pyridostatin TFA]", "values": [{"measurement": "IC50", "setting": "[1]", "result": 7800, "unit": "nM"}, {"measurement": "cleavage of yeast tRNA by SAMD9 tRNase", "setting": "[2]", "result": "partially reduced"}]}
{"compound": "Salvianolic acid B", "values": [{"measurement": "IC50", "setting": "[1]; dose response studies, cleavage of Phe17-Fret by SAMD9 tRNase, read-out: IC50", "result": 3000, "unit": "nM"}, {"measurement": "cleavage of yeast tRNA by SAMD9 tRNase", "setting": "[2]", "result": "blocked"}, {"measurement": "disruption of the SAMD9 tRNase:tRNA complex", "setting": "[3]; 20:1 molar ratio", "result": "minor effect"}, {"measurement": "disruption of the SAMD9 tRNase:tRNA complex", "setting": "[3]; 100:1 molar ratio", "result": "did not completely disrupt"}]}
